Structures can show the parent of a compound that is named as a salt. Where two headings read alike, the source gives them in different places.
Assays:
Aβ1-42 = Aβ1-42 content in conditioned medium of primary cortico-hippocampal neuron cultures from Tg2576 mice (ELISA; primary and secondary dose-response screening); assay type: cell-based, mouse; details: for activity at 100 µM: Mus musculus, Neuron, 24 h, read-out: Ab1-42 (% of ctl); for activity at 100 µM / Ab1-42 (% of ctl): drug 100 μM; for reducing Aβ1-42: <85% of ctl
Procedure: (§1) Potential Aβ-lowering activity was assessed for 150 commercially available cardiovascular drugs using primary cortico-hippocampal neuron cultures derived from embryonic Tg2576 (El 6). […] All cardiovascular reagents were obtained from MicroSource Discovery Systems Inc (Gaylordsville, Conn.). […] Individual cardiovascular agents were applied directly to the culture medium (final 1% DMSO in the culture media). In control studies, parallel Tg2576 primary neuron cultures were treated with vehicle (1% DMSO) alone. The influence of drug treatments in Aβ content in the conditioned medium in treated cultures was assessed by assessing steady state levels of Aβ1-40 and Aβ1-42 in the culture media 24 hours after treatment.
(§2) Embryonic brain tissue was mechanically triturated and centrifuged. Neurons were seeded onto poly-D-lysine-coated 96-well plates at 1.0×10^5 cells per well and cultured in the serum-free chemically-defined medium Neurobasal, supplemented with 2% B27, 0.5 mM L-glutamine and 1% penicillin-streptomycin (Gibco-BRL).
(§3) For primary screening, cultured neurons were treated with 100 μM of drug in duplicates for 16 hours; all drugs were obtained in stock from MicroSource Discovery Systems Inc (Gaylordsville, Conn.). Conditioned medium was collected for Aβ detection using commercially available ELISA kits (BioSource). […] Primary neurons prepared in 96-well plates were treated with 0.1 μM, 1 μM, 10 μM, 50 μM, and 100 μM of each drug in duplicate for ˜16 hours and conditioned medium was collected for Aβ detection.

[1] = tested on: primary cortico-hippocampal neuron cultures; experiment: lactate dehydrogenase (LDH) activity assay in parallel neuron cultures
Procedure: For in vitro treatments drugs available from “The Spectrum Collection” in stocks of 10 mM in DMSO were applied directly to cultures to the desired concentrations (final 1% DMSO); control primary neuron cultures from Tg2576 embryos were treated with vehicle resulting in a final 1% DMSO.
Cell viability was assessed using a commercial available LDH assay kit according to the manufacture's instruction (Promega).

Aβ1-40 = Aβ1-40 content in conditioned medium of primary cortico-hippocampal neuron cultures from Tg2576 mice (ELISA; primary and secondary dose-response screening); assay type: cell-based, mouse; details: for activity at 100 µM: Mus musculus, Neuron, 24 h, read-out: Ab1-40 (% of ctl); for activity at 100 µM / Ab1-40 (% of ctl): drug 100 μM; for reduced Aβ1-40: <85% of ctl
Procedure: as §1, §2, §3

[2] = tested on: primary cortico-hippocampal neuron cultures; experiment: MTT in primary screening
[3] = Primary Screening, table sorted by Aβ1-40
[4] = primary screening, Tg2576 neuron cultures, table sorted by Aβ1-42
[5] = primary screening, table sorted by Aβ1-42

SMILES	LDH (% of ctl) [1, 3]	LDH (% of ctl) [1, 5]	MTT (% of ctl) [2, 3]	MTT (% of ctl) [2, 5]	LDH at E-5M % of change ([1]; drug at E-5M)	activity at 100 µM (Aβ1-42; [3])	activity at 100 µM (Aβ1-42; [4])	reducing Aβ1-42 (Aβ1-42; primary screening)	activity at 100 µM (Aβ1-40; [3])	activity at 100 µM (Aβ1-40; [4])	reduced Aβ1-40 (Aβ1-40; primary screening)	Ab1-42 (% of ctl) (Aβ1-42; [3])	Ab1-42 (% of ctl) (Aβ1-42; [4])	Ab1-40 (% of ctl) (Aβ1-40; [3])	Ab1-40 (% of ctl) (Aβ1-40; [4])
C=CCSCC1Nc2cc(Cl)c(S(N)(=O)=O)cc2S(=O)(=O)N1 (centres unmarked) [Althiazide]	109.0 % of ctl	109.0 % of ctl	99.7 % of ctl	99.7 % of ctl		65.4%	65.4%	useful in reducing Aβ1-42	74.4%	74.4%	reduced Aβ1-40				
CCCCc1oc2ccccc2c1C(=O)c1cc(I)c(OCCN(CC)CC)c(I)c1 [Amiodarone Hydrochloride]					1.9%	23.2%	23.2%	useful in reducing Aβ1-42	14.9%	14.9%	reduced Aβ1-40				
Cc1cccc(C)c1OCC(C)N (centres unmarked) [Mexiletine Hydrochloride]	103.4 % of ctl	103.4 % of ctl	95.6 % of ctl	95.6 % of ctl		115%	115%		91.3%	91.3%					
O=c1cc(-c2ccccc2)oc2cc(O)cc(O)c12 [Chrysin]	118.3 % of ctl	118.3 % of ctl	84.5 % of ctl	84.5 % of ctl		83.4%	83.4%		71.6%	71.6%					
CC(C)COCC(CN(Cc1ccccc1)c1ccccc1)N1CCCC1 (centres unmarked) [Bepridil Hydrochloride]	1885.2 % of ctl	1885.2 % of ctl	77.1 % of ctl	77.1 % of ctl		19.9%	19.9%	useful in reducing Aβ1-42	5.1%	5.1%	reduced Aβ1-40				
NS(=O)(=O)c1cc(C2(O)NC(=O)c3ccccc32)ccc1Cl (centres unmarked) [Chlorthalidone]	645.8 % of ctl	645.8 % of ctl	12.1 % of ctl	12.1 % of ctl		96.7%	96.7%		108%	108%					
NS(=O)(=O)c1cc(C(=O)O)c(NCc2ccco2)cc1Cl [Furosemide]	98.2 % of ctl	98.2 % of ctl	101.0 % of ctl	101.0 % of ctl		95.7%	95.7%		118%	118%					
NS(=O)(=O)c1cc2c(cc1Cl)N=C(CSCc1ccccc1)NS2(=O)=O [Benzthiazide]	105.1 % of ctl	105.1 % of ctl	98.5 % of ctl	98.5 % of ctl		98.9%	98.9%		106%	106%					
CNCCc1ccccn1 [Betahistine Hydrochloride]	107.3 % of ctl	107.3 % of ctl	107.1 % of ctl	107.1 % of ctl		98.9%	98.9%		110%	110%					
CCCC(=O)Nc1ccc(OCC(O)CNC(C)C)c(C(C)=O)c1 (centres unmarked) [Acebutolol Hydrochloride]	107.6 % of ctl	107.6 % of ctl	99.4 % of ctl	99.4 % of ctl		165%	165%		134%	134%					
NS(=O)(=O)c1cc2c(cc1C(F)(F)F)NCNS2(=O)=O [Hydroflumethiazide]	99.7 % of ctl	99.7 % of ctl	98.9 % of ctl	98.9 % of ctl		90.2%	90.2%		92.4%	92.4%					
CC(C)(Oc1ccc(CCNC(=O)c2ccc(Cl)cc2)cc1)C(=O)O [BENZAFIBRATE]												99.5 % of ctl	99.5 % of ctl	107.2 % of ctl	107.2 % of ctl
CC(C)(C)NCC(O)c1ccccc1Cl (centres unmarked) [Tulobuterol]									95.5%	95.5%					
CC[C@@H](C)C(=O)O[C@H]1[C@H](O)[C@H]2[C@@H](CN3C[C@@H](C)CC[C@H]3[C@@]2(C)O)[C@@H]2C[C@]34O[C@]5(O)[C@@H](OC(=O)[C@@](C)(O)CC)CC[C@@]3(C)[C@@H]5[C@@H](OC(C)=O)[C@@H](OC(C)=O)[C@H]4[C@@]21O [Protoveratrine A]												104.6 % of ctl	104.6 % of ctl	91.7 % of ctl	91.7 % of ctl

Now from value to molecule, other results behind:

LDH (% of ctl) [1, 3]	LDH (% of ctl) [1, 5]	MTT (% of ctl) [2, 3]	MTT (% of ctl) [2, 5]	LDH at E-5M % of change ([1]; drug at E-5M)	SMILES	activity at 100 µM (Aβ1-42; [3])	activity at 100 µM (Aβ1-42; [4])	reducing Aβ1-42 (Aβ1-42; primary screening)	activity at 100 µM (Aβ1-40; [3])	activity at 100 µM (Aβ1-40; [4])	reduced Aβ1-40 (Aβ1-40; primary screening)	Ab1-42 (% of ctl) (Aβ1-42; [3])	Ab1-42 (% of ctl) (Aβ1-42; [4])	Ab1-40 (% of ctl) (Aβ1-40; [3])	Ab1-40 (% of ctl) (Aβ1-40; [4])
130.8 % of ctl	130.8 % of ctl	96.7 % of ctl	96.7 % of ctl		NC(N)=O [Urea]							104.9 % of ctl	104.9 % of ctl		
117.1 % of ctl	117.1 % of ctl	98.5 % of ctl	98.5 % of ctl		Nc1cc(N2CCCCC2)nc(N)[n+]1[O-] [Minoxidil]	98.9%	98.9%		94.2%	94.2%					
97.1 % of ctl	97.1 % of ctl	103.4 % of ctl	103.4 % of ctl		COc1ccccc1N1CCN(CCCNc2cc(=O)n(C)c(=O)n2C)CC1 [Urapidil]	114%	114%		96.4%	96.4%					
116.9 % of ctl	116.9 % of ctl	86.4 % of ctl	86.4 % of ctl		C#CCN(C)Cc1ccccc1 [Pargyline Hydrochloride]	106%	106%		78.6%	78.6%	reduced Aβ1-40				
1065.9 % of ctl	1065.9 % of ctl	7.2 % of ctl	7.2 % of ctl		C1CCC(C(CC2CCCCN2)C2CCCCC2)CC1 (centres unmarked) [Perhexiline Maleate]	26.2%	26.2%	useful in reducing Aβ1-42	4.8%	4.8%	reduced Aβ1-40				
108.9 % of ctl	108.9 % of ctl	101.3 % of ctl	101.3 % of ctl		CC(=O)Nc1ccc(OCC(O)CNC(C)C)cc1 (centres unmarked) [Practolol]	99.9%	99.9%		99.7%	99.7%					
96.6 % of ctl	96.6 % of ctl	103.2 % of ctl	103.2 % of ctl		CCN(CC)CCOC(=O)C(Cc1cccc2ccccc12)CC1CCCO1 (centres unmarked) [Nafronyl Oxalate]	145%	145%		134%	134%					
100.6 % of ctl	100.6 % of ctl	99.5 % of ctl	99.5 % of ctl		CCOC(=O)NNc1nncc2ccccc12 [Todralazine Hydrochloride]	110%	110%		105%	105%					
298.7 % of ctl	298.7 % of ctl	103.8 % of ctl	103.8 % of ctl		CC(C)c1nc(N(C)S(C)(=O)=O)nc(-c2ccc(F)cc2)c1/C=C/[C@@H](O)C[C@@H](O)CC(=O)O [Rosuvastatin]	65.6%	65.6%	useful in reducing Aβ1-42	83.6%	83.6%	reduced Aβ1-40				

From patent US20100029654A1, “CARDIOVASCULAR COMPOSITIONS AND USE OF THE SAME FOR THE TREATMENT OF ALZHEIMER'S DISEASE” (MOUNT SINAI SCHOOL OF MEDICINE, priority 2006, published 2010)
